Reference: patent US20230278972A1, “SUBSTITUTED HALOALKYL SULFONANILIDE HERBICIDES” (FMC Corporation, priority 2020, published 2023)

How the values were obtained:
Format in all cases: in vivo
kochia (Bassia scoparia) = assay: Test A1 postemergence, kochia; conditions: Postemergence
Summary of the method: (§1)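 Herbicidal response was scored on plants treated either preemergence, by directed spray onto soil of a loam–sand blend after sowing, or postemergence on potted plants at the one- to two-leaf stage, 2–10 cm high. Test chemicals were carried in a non-phytotoxic solvent mix with surfactant.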

[1] = test system: Pigweed, Palmer (palmer amaranth, palmer pigweed, Amaranthus palmeri); assay: Test A1 postemergence, Pigweed, Palmer; conditions: Postemergence
Summary of the method: (§2)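 Both timings started from seed in a loam-sand blend. Preemergence pots got a directed soil application immediately; postemergence pots were sprayed when seedlings had one or two leaves and stood 2–10 cm. Each compound was prepared in a non-phytotoxic solvent plus surfactant.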

[2] = test system: goosegrass (Eleusine indica); assay: Test A1 preemergence, goosegrass
Summary of the method: as §2

[3] = test system: Oat, Wild (wild oat, Avena fatua); assay: Test A1 postemergence, Oat, Wild; conditions: Postemergence
Summary of the method: as §2

rice (Oryza sativa) = assay: Test B1 flooded paddy test, rice; conditions: 250 g ai/ha, Flood, applied to paddy water, 2-leaf stage, visually evaluated after 10 to 14 days
Source text: (§3) A dash (-) response means no test result.

[4] = test system: Foxtail, Giant (giant foxtail, Setaria faberi); assay: Test A1 preemergence, Foxtail, Giant
Summary of the method: as §2

[5] = test system: galium (catchweed bedstraw, Galium aparine); assay: Test A1 postemergence, galium; conditions: Postemergence
Summary of the method: as §1

[6] = test system: barnyardgrass (Echinochloa crus-galli); assay: Test B1 flooded paddy test, barnyardgrass; conditions: 250 g ai/ha, Flood, applied to paddy water, 2-leaf stage, visually evaluated after 10 to 14 days
Source text: as §3

[7] = test system: blackgrass (Alopecurus myosuroides); assay: Test A1 preemergence, blackgrass
Summary of the method: as §2

[8] = 31 g ai/ha, 0 to 100 scale (0 no effect, 100 complete control), 10 days
[9] = 31 g ai/ha, 0 to 100 scale (0 no effect, 100 complete control)
[10] = 125 g ai/ha, 0 to 100 scale, 0 no effect, 100 complete control

Structure (SMILES): Cc1cc(C)c(N(COC(=O)C(C)(C)C)S(=O)(=O)C(F)(F)F)cc1C(=O)N1CCOCC1 [Compound 362]
- Plant response rating, Kochia (kochia (Bassia scoparia); [8]): 50
- Plant response rating, Kochia (kochia (Bassia scoparia); 125 g ai/ha, 0 to 100 scale): 80
- Plant response rating, Pigweed, Palmer [1, 8]: 10
- Plant response rating, Pigweed, Palmer ([1]; 125 g ai/ha, 0 to 100 scale): 30
- Plant response rating, Goosegrass [2, 9]: 90
- Plant response rating, Goosegrass [2, 10]: 100
- Plant response rating, Oat, Wild [3, 8]: 0
- Plant response rating, Oat, Wild ([3]; 125 g ai/ha, 0 to 100 scale): 10
- Plant response rating, Rice (0 to 100 scale, 0 is no effect, 100 is complete control) (rice (Oryza sativa)): 10
- Plant response rating, Foxtail, Giant [4, 9]: 20
- Plant response rating, Foxtail, Giant [4, 10]: 90
- Plant response rating, Galium [5, 8]: 60
- Plant response rating, Galium ([5]; 125 g ai/ha, 0 to 100 scale): 80
- Plant response rating, Barnyardgrass (0 to 100 scale, 0 is no effect, 100 is complete control) [6]: 95
- Plant response rating, Blackgrass [7, 9]: 10
- Plant response rating, Blackgrass [7, 10]: 50

Structure (SMILES): Cc1c(NS(=O)(=O)C(F)(F)F)cc(C(=O)N(C)C)c(C)c1C [Compound 288]
- Plant response rating, Kochia (kochia (Bassia scoparia); [8]): 0
- Plant response rating, Kochia (kochia (Bassia scoparia); 125 g ai/ha, 0 to 100 scale): 10
- Plant response rating, Pigweed, Palmer [1, 8]: 0
- Plant response rating, Pigweed, Palmer ([1]; 125 g ai/ha, 0 to 100 scale): 30
- Plant response rating, Goosegrass [2, 9]: 30
- Plant response rating, Goosegrass [2, 10]: 90
- Plant response rating, Oat, Wild [3, 8]: 0
- Plant response rating, Oat, Wild ([3]; 125 g ai/ha, 0 to 100 scale): 0
- Plant response rating, Rice (0 to 100 scale, 0 is no effect, 100 is complete control) (rice (Oryza sativa)): 0
- Plant response rating, Foxtail, Giant [4, 9]: 20
- Plant response rating, Foxtail, Giant [4, 10]: 90
- Plant response rating, Galium [5, 8]: 0
- Plant response rating, Galium ([5]; 125 g ai/ha, 0 to 100 scale): 0
- Plant response rating, Barnyardgrass (0 to 100 scale, 0 is no effect, 100 is complete control) [6]: 0
- Plant response rating, Blackgrass [7, 9]: 0
- Plant response rating, Blackgrass [7, 10]: 0

Structure (SMILES): Cc1cc(C)c(N(COC(=O)C(C)(C)C)S(=O)(=O)C(F)(F)F)cc1C(=O)N1CCC(F)(F)CC1 [Compound 350]
- Plant response rating, Kochia (kochia (Bassia scoparia); [8]): 0
- Plant response rating, Kochia (kochia (Bassia scoparia); 125 g ai/ha, 0 to 100 scale): 60
- Plant response rating, Pigweed, Palmer [1, 8]: 30
- Plant response rating, Pigweed, Palmer ([1]; 125 g ai/ha, 0 to 100 scale): 40
- Plant response rating, Goosegrass [2, 9]: 30
- Plant response rating, Goosegrass [2, 10]: 90
- Plant response rating, Oat, Wild [3, 8]: 0
- Plant response rating, Oat, Wild ([3]; 125 g ai/ha, 0 to 100 scale): 0
- Plant response rating, Rice (0 to 100 scale, 0 is no effect, 100 is complete control) (rice (Oryza sativa)): 35
- Plant response rating, Foxtail, Giant [4, 9]: 0
- Plant response rating, Foxtail, Giant [4, 10]: 80
- Plant response rating, Galium [5, 8]: 70
- Plant response rating, Galium ([5]; 125 g ai/ha, 0 to 100 scale): 90
- Plant response rating, Barnyardgrass (0 to 100 scale, 0 is no effect, 100 is complete control) [6]: 90
- Plant response rating, Blackgrass [7, 9]: 0
- Plant response rating, Blackgrass [7, 10]: 0

Structure (SMILES): Cc1cc(C(F)(F)F)c(C2=NOC3CCCC23)cc1NS(=O)(=O)C(F)(F)F (stereo not drawn) [Compound 306]
- Plant response rating, Kochia (kochia (Bassia scoparia); [8]): 0
- Plant response rating, Kochia (kochia (Bassia scoparia); 125 g ai/ha, 0 to 100 scale): 20
- Plant response rating, Pigweed, Palmer [1, 8]: 0
- Plant response rating, Pigweed, Palmer ([1]; 125 g ai/ha, 0 to 100 scale): 40
- Plant response rating, Goosegrass [2, 9]: 50
- Plant response rating, Goosegrass [2, 10]: 100
- Plant response rating, Oat, Wild [3, 8]: 0
- Plant response rating, Oat, Wild ([3]; 125 g ai/ha, 0 to 100 scale): 20
- Plant response rating, Rice (0 to 100 scale, 0 is no effect, 100 is complete control) (rice (Oryza sativa)): 0
- Plant response rating, Foxtail, Giant [4, 9]: 0
- Plant response rating, Foxtail, Giant [4, 10]: 20
- Plant response rating, Galium [5, 8]: 60
- Plant response rating, Galium ([5]; 125 g ai/ha, 0 to 100 scale): 80
- Plant response rating, Barnyardgrass (0 to 100 scale, 0 is no effect, 100 is complete control) [6]: 0
- Plant response rating, Blackgrass [7, 9]: 0
- Plant response rating, Blackgrass [7, 10]: 0

Structure (SMILES): COC1CCCN(C(=O)c2cc(NS(=O)(=O)C(F)(F)F)c(Cl)c(F)c2C)C1 (stereo not drawn) [Compound 334]
- Plant response rating, Kochia (kochia (Bassia scoparia); [8]): 10
- Plant response rating, Kochia (kochia (Bassia scoparia); 125 g ai/ha, 0 to 100 scale): 40
- Plant response rating, Pigweed, Palmer [1, 8]: 10
- Plant response rating, Pigweed, Palmer ([1]; 125 g ai/ha, 0 to 100 scale): 50
- Plant response rating, Goosegrass [2, 9]: 70
- Plant response rating, Goosegrass [2, 10]: 90
- Plant response rating, Oat, Wild [3, 8]: 0
- Plant response rating, Oat, Wild ([3]; 125 g ai/ha, 0 to 100 scale): 0
- Plant response rating, Rice (0 to 100 scale, 0 is no effect, 100 is complete control) (rice (Oryza sativa)): 10
- Plant response rating, Foxtail, Giant [4, 9]: 40
- Plant response rating, Foxtail, Giant [4, 10]: 70
- Plant response rating, Galium [5, 8]: 60
- Plant response rating, Galium ([5]; 125 g ai/ha, 0 to 100 scale): 60
- Plant response rating, Barnyardgrass (0 to 100 scale, 0 is no effect, 100 is complete control) [6]: 15
- Plant response rating, Blackgrass [7, 9]: 10
- Plant response rating, Blackgrass [7, 10]: 10

Structure (SMILES): CCOC(=O)N(c1cc(C(=O)N2C[C@@H](C)O[C@@H](C)C2)c(C)c(C)c1C)S(=O)(=O)C(F)(F)F [Compound 332]
- Plant response rating, Kochia (kochia (Bassia scoparia); [8]): 0
- Plant response rating, Kochia (kochia (Bassia scoparia); 125 g ai/ha, 0 to 100 scale): 10
- Plant response rating, Pigweed, Palmer [1, 8]: 10
- Plant response rating, Pigweed, Palmer ([1]; 125 g ai/ha, 0 to 100 scale): 30
- Plant response rating, Goosegrass [2, 9]: 50
- Plant response rating, Goosegrass [2, 10]: 90
- Plant response rating, Oat, Wild [3, 8]: 0
- Plant response rating, Oat, Wild ([3]; 125 g ai/ha, 0 to 100 scale): 30
- Plant response rating, Rice (0 to 100 scale, 0 is no effect, 100 is complete control) (rice (Oryza sativa)): 0
- Plant response rating, Foxtail, Giant [4, 9]: 100
- Plant response rating, Foxtail, Giant [4, 10]: 100
- Plant response rating, Galium [5, 8]: 80
- Plant response rating, Galium ([5]; 125 g ai/ha, 0 to 100 scale): 90
- Plant response rating, Barnyardgrass (0 to 100 scale, 0 is no effect, 100 is complete control) [6]: 98
- Plant response rating, Blackgrass [7, 9]: 0
- Plant response rating, Blackgrass [7, 10]: 0
